Source: US20250262169A1, “METHODS OF TREATING COENZYME Q10 DEFICIENCY” (BPGbio, Inc., priority 2024, published 2025)

How the values were obtained:
[1] = rats, oral; cited from earlier work
[2] = cited from earlier work
SH-SY5Y cell line = settings: cited from earlier work
[3] = cited from earlier work; remark: listed apart in the source
SH-SY5Y cells = assay: Oxidized CoQ10 levels in PABA-induced CoQ10 deficient neuronal cells; assay type: cell-based; settings: 1 mM PABA for 5 days
Description: An established model of CoQ10 deficiency was used to study the effects of BPM31510 in vitro. […] A neuronal cell model of CoQ10 deficiency by treatment of the neuronal SH-SY5Y cell line with PABA has previously been established. In this model, a significant reduction of cellular ATP production and increase in mitochondrial reactive oxygen species (ROS) was observed. […] Therefore, this PABA-induced CoQ10 deficient in vitro model was used to evaluate the potency of BPM31510 to restore ATP levels and reduce mitochondrial ROS.
SH-SY5Y cells were pretreated for 5 days with 1 mM PABA or vehicle in all experiments.

COQ2 = target: T1, COQ2 (Homo sapiens, UniProt Q96H96); settings: HL-60 cells; cited from earlier work
T1 construct: host or cells: HL-60 cells (endogenous enzyme)
T1 sequence (Q96H96 35-371): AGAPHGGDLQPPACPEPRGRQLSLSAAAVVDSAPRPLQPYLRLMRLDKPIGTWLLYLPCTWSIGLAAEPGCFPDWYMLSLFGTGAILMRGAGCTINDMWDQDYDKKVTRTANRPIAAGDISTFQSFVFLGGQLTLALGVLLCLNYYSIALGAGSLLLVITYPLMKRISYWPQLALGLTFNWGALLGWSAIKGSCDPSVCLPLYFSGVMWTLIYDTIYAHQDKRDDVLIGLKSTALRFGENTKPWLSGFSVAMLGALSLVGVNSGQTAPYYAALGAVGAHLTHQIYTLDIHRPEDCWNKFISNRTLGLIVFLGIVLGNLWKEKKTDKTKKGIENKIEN

[4] = young rats, after four days of dosing
[5] = CoQ10 supplementation 2.5 μM and 5 μM

Row | Structure (SMILES) | orally-administered CoQ10 absorbed [1] | concentration of CoQ10 in brain ([2]; 1-2 month old animals, oral administration) | CoQ10 in cerebral tissues ([2]; 12 month old and 24 month old rats, oxidized and reduced forms) | concentration in heart or kidney [2, 4] | plasma, liver, and spleen concentrations [2, 4] | electron transport chain (ETC) activities (SH-SY5Y cell line; [5]) | mitochondrial oxidative stress (SH-SY5Y cell line; [5]) | exogenous CoQ10 required to restore ETC activities (SH-SY5Y cell line; PABA treated SH-SY5Y) | correction of ATP and ROS levels (SH-SY5Y cell line; higher concentrations (>10 μM), reports in literature) | solubility in water [3] | reduction of oxidized CoQ10 levels (SH-SY5Y cells) | COQ2 activity (COQ2)
1 | COC1=C(OC)C(=O)C(C/C=C(\C)CC/C=C(\C)CC/C=C(\C)CC/C=C(\C)CC/C=C(\C)CC/C=C(\C)CC/C=C(\C)CC/C=C(\C)CC/C=C(\C)CCC=C(C)C)=C(C)C1=O [CoQ10, Coenzyme Q10] | 2-3% | did not increase | accumulation of CoQ10 in cerebral tissues | no increase | increased | unable to fully restore | effective at significantly reducing | > 10 µM | not complete | insoluble in water |  | 
2 | Nc1ccc(C(=O)O)cc1 [PABA, Para-aminobenzoic acid] |  |  |  |  |  |  |  |  |  |  | approximately 90% | inhibit COQ2 activity
